Laboratory results reported in US11208412B2 (DAEGU-GYEONGBUK MEDICAL INNOVATION FOUNDATION, priority 2017, dated 2021).

Experiments:
Assay in all cases: Kinase selectivity, DiscoverX scanMAX Kinase assay panel (% control)
Format in all cases: binding
[1] = biological target: T1, kinases of the scanMAX Kinase assay panel (Homo sapiens, UniProt O14976); conditions: GAK; 1 uM
T1 construct: purchased DiscoverX Co. (contract measurement) scanMAX Kinase assay panel
T1 sequence (O14976 1-1311): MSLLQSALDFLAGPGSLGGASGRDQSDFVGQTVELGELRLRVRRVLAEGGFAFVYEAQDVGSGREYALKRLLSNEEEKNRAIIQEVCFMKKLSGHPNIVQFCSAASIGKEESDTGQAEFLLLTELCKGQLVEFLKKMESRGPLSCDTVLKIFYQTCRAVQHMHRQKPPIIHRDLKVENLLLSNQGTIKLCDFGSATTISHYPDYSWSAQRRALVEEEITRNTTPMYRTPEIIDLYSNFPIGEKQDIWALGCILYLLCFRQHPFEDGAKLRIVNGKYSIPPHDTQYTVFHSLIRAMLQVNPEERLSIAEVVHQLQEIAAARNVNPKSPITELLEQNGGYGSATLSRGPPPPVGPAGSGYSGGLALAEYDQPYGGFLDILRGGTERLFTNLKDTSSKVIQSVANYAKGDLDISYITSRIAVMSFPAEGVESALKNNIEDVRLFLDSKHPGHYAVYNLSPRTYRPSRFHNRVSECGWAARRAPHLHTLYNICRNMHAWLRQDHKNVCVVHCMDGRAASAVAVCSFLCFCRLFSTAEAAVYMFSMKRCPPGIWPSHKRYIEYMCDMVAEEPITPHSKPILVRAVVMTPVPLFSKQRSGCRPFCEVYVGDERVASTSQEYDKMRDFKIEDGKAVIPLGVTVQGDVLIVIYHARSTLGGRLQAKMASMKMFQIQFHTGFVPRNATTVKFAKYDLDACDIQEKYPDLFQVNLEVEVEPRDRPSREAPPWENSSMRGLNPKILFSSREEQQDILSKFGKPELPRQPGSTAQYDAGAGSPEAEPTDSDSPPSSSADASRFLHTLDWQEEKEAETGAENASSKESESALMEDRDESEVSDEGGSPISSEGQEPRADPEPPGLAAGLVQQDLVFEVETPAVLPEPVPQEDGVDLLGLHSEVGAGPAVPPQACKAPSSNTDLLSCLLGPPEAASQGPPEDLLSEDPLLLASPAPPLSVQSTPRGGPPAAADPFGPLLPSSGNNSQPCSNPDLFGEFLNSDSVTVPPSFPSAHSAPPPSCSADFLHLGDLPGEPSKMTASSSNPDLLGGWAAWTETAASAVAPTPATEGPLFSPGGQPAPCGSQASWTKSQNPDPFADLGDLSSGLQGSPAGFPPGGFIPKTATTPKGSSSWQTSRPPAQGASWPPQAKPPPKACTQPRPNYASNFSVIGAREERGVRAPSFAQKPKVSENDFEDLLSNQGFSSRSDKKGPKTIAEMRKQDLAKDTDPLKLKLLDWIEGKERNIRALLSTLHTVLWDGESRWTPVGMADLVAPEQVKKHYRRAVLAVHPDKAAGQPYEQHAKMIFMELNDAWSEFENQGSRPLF
Outline: (§1)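 Single-point screen, 1 uM cpd in DMSO. % ctrl = (cpd − pos ctrl)/(neg ctrl − pos ctrl)×100; pos ctrl = 0%, DMSO neg ctrl = 100%. Hit cutoff <35%.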

[2] = biological target: T2, kinases of the scanMAX Kinase assay panel (Homo sapiens, UniProt P35590); conditions: kinase TIE1; 1 uM in DMSO
T2 construct: purchased DiscoverX Co. (contract measurement) scanMAX Kinase assay panel
T2 sequence (P35590 22-1138): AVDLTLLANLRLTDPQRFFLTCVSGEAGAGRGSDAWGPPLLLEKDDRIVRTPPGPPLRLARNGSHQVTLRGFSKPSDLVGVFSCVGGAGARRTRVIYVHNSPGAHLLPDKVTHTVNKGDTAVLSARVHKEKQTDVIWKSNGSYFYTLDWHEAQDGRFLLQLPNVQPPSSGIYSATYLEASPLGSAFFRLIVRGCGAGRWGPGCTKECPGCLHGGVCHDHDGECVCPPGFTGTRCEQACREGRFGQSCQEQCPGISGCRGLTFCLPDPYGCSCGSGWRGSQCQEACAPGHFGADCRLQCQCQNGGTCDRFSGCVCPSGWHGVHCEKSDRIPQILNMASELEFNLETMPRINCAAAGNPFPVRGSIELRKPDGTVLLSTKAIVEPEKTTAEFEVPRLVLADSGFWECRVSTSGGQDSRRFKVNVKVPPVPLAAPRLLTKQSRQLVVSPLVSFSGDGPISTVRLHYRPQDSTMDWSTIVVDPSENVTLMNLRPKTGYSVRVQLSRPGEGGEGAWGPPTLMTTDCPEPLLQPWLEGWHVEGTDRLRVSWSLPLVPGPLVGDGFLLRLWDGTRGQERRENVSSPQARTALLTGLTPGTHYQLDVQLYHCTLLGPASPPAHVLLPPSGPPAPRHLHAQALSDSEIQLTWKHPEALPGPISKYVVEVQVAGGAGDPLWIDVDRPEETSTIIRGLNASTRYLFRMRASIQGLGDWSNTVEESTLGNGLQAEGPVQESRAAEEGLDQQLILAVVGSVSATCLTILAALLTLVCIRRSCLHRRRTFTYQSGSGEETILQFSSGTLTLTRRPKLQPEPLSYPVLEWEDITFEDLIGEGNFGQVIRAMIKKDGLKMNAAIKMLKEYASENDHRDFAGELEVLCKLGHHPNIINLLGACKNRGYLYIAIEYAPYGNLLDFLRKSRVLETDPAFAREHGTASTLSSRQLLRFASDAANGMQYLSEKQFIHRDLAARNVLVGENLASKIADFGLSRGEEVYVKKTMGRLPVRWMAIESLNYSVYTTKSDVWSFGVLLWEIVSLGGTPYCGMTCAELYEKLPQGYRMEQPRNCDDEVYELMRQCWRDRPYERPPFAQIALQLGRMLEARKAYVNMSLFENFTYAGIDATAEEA
Outline: as §1

[3] = biological target: T3, kinases of the scanMAX Kinase assay panel (Homo sapiens, UniProt Q09013); conditions: DMPK; 1 uM
T3 construct: purchased DiscoverX Co. (contract measurement) scanMAX Kinase assay panel
T3 sequence (Q09013 1-629): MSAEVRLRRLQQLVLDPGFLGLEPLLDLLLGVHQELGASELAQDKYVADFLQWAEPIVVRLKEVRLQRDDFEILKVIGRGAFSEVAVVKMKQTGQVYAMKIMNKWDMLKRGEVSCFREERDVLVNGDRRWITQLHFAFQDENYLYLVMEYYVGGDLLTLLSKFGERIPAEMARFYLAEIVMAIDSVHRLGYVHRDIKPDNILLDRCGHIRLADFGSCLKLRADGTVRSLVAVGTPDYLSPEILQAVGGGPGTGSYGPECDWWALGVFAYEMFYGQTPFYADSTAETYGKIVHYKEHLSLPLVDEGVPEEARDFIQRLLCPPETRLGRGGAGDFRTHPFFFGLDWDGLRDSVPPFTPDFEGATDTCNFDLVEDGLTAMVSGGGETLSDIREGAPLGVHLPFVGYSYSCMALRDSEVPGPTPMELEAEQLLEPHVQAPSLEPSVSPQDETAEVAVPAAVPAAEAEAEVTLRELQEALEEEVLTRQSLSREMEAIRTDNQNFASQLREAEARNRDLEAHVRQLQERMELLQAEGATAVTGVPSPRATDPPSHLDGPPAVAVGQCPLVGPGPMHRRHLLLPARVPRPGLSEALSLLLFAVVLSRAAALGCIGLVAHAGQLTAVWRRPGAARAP
Outline: as §1

[4] = biological target: T4, kinases of the scanMAX Kinase assay panel (Homo sapiens, UniProt Q13177); conditions: PAK2; 1 uM
T4 construct: purchased DiscoverX Co. (contract measurement) scanMAX Kinase assay panel
T4 sequence (Q13177 whole entry): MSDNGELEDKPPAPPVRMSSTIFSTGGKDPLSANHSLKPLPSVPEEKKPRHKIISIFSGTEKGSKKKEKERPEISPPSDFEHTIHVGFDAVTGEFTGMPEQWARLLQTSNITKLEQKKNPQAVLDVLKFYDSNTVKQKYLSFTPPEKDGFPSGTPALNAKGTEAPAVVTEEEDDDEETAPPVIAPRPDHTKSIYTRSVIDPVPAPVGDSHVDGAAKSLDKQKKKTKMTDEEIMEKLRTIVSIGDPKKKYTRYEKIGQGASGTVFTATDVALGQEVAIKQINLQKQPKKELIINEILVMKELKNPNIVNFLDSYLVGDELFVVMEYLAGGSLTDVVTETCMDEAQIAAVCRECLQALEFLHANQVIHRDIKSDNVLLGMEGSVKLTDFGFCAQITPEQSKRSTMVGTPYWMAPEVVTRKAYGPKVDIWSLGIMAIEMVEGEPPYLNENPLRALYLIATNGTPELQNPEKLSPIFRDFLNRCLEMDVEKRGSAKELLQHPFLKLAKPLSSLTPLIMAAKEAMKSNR
Outline: as §1

## CNc1nc(Nc2ccc(C(=O)N3CCOCC3)cc2OC)nc2[nH]cc(C#N)c12 [Example 1, 2-((2-methoxy-4-(morpholine-4-carbonyl)phenyl)amino)-4-(methylamino)-7H-pyrrolo[2,3-d]pyrimidine-5-carbonitrile]
[1]
  remaining binding at 1 µM: 11%
[2]
  remaining binding at 1 µM: 96%
[3]
  remaining binding at 1 µM: 100%
[4]
  remaining binding at 1 µM: 95%

## CC1(Nc2nc(Nc3cnn([C@H]4CCN(C5COC5)C[C@@H]4F)c3Cl)nc3[nH]cc(C#N)c23)CC1 [Example 52, 2-((5-chloro-1-((3S,4S)-3-fluoro-1-(oxetane-3-yl)piperidine-4-yl)-1H-pyrazole-4-yl)amino)((1-methylcyclopropyl)amino)-7H-pyrrolo[2,3-d]pyrimidine-5-carbonitrile]
[1]
  remaining binding at 1 µM: 5.8%
[2]
  remaining binding at 1 µM: 19%
[3]
  remaining binding at 1 µM: 3.4%
[4]
  remaining binding at 1 µM: 45%

## CCNc1nc(Nc2ccc(C(=O)N3CCC(N4CCOCC4)CC3)cc2OC)nc2[nH]cc(C(F)(F)F)c12 [Example 104, (4-((4-(ethylamino)-5-(trifluoromethyl)-7H-pyrrolo[2,3-d]pyrimidine-2-yl)amino)-3-methoxyphenyl)(4-morpholinopiperidine-1-yl)methanone]
[1]
  remaining binding at 1 µM: 1%
[2]
  remaining binding at 1 µM: 100%
[3]
  remaining binding at 1 µM: 100%
[4]
  remaining binding at 1 µM: 71%
